For 19 compounds, pest or weed control, inhibition of growth and melting point results are on record in patent US10798941B2, “Microbiocidal oxadiazole derivatives” (SYNGENTA PARTICIPATIONS AG, priority 2016, dated 2020).

One data set deals with Phakopsora pachyrhizi. Briefly: Phakopsora pachyrhizi / soybean / leaf disc preventative (Asian soybean rust). The class given is in vivo. As to conditions: foliar, 288 h, 200 ppm in the applied formulation, soybean leaf disks, inoculated one day after application, assessed 12 to 14 days after application, vs untreated, read-out: disease control. Summed up:
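Read-out is percent disease control relative to untreated check discs, assessed once untreated discs show adequate disease, 12 to 14 days after application. Compounds, tested at 200 ppm in the applied formulation, are sprayed onto soybean leaf discs one day before inoculation with a spore suspension.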

The subject of data set [1] is Puccinia recondita f. Sp. Tritici. Briefly: Puccinia recondita f. sp. tritici / wheat / leaf disc curative (brown rust). The class given is in vivo. Particulars: foliar, 144 h, 200 ppm in the applied formulation, wheat leaf segments cv. Kanzler, applied 1 day after inoculation, assessed 6 to 8 days after application, vs untreated, read-out: disease control. Summed up:
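Compound applied 1 day after spore inoculation of wheat cv. Kanzler leaf segments on agar (dark, 19 °C, 75% RH before treatment). After further incubation under 12 h light/12 h dark at 19 °C and 75% RH, disease control relative to untreated segments rated 6–8 days post-application.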

Data set [2] shares this test system. Briefly: Puccinia recondita f. sp. tritici / wheat / leaf disc preventative (brown rust). The class given is in vivo. As to conditions: foliar, 168 h, 200 ppm in the applied formulation, wheat leaf segments cv. Kanzler, preventative, inoculated 1 day after application, assessed 7 to 9 days after application, vs untreated, read-out: disease control. Summed up: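 Preventative leaf-segment test: spray application of diluted formulated compound on wheat cv. Kanzler, spore inoculation after 1 day. Percent control relative to untreated segments rated 7 to 9 days post-application, with incubation at 19° C, 75% relative humidity, 12 h photoperiod.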

Data set [3] concerns Glomerella Lagenarium (Colletotrichum Lagenarium). Briefly: Glomerella lagenarium (Colletotrichum lagenarium) liquid culture / cucumber / preventative (anthracnose). The class given is cell-based. Particulars: Colletotrichum orbiculare; 20 ppm in the applied formulation; liquid culture in PDB, 24° C., inhibition of growth measured photometrically 3 to 4 days after application, vs untreated; read-out: disease control. Summed up:
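Conidia from cryogenic storage were mixed into potato dextrose broth. This was added to compound diluted from DMSO into 0.025% Tween20, tested at 20 ppm. Plates were incubated in the dark at 24 °C and 96% relative humidity, and growth was read photometrically after 2–7 days as % activity versus untreated check.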

One may read the melting point as the temperature of the solid-liquid transition.

Several values for one entry are separate records, joined by “and”; a condition that tells them apart may be missing. Identical values can stand only once. Bounds are passed on as bounds.

For `FC(F)(F)c1nc(-c2ccc(Cn3cc(-c4ccccn4)nn3)cc2)no1` [Compound 1.22, 3-[4-[[4-(2-pyridyl)triazol-1-yl]methyl]phenyl]-5-(trifluoromethyl)-1,2,4-oxadiazole], the melting point lay in the range of 160.2 to 162.4 °C. The pest or weed control at 200 ppm in the data set with Phakopsora pachyrhizi was not below 80%. In addition, the pest or weed control at 200 ppm in data set [1] is not below 80%. In addition, the pest or weed control at 200 ppm in data set [2] was not below 80%. For the same compound, the inhibition of growth at 20 ppm in data set [3] is not below 80%.

Turning to `FC(F)(F)c1nc(-c2ccc(Cn3cc(-c4cccnc4)nn3)cc2)no1` [Compound 1.23, 3-[4-[[4-(3-pyridyl)triazol-1-yl]methyl]phenyl]-5-(trifluoromethyl)-1,2,4-oxadiazole], the melting point lay in the range of 159.8 to 163.1 °C. In addition, the pest or weed control at 200 ppm in the data set on Phakopsora pachyrhizi was not below 80%. For the same compound, the pest or weed control at 200 ppm in data set [1] was not below 80%. Further, the pest or weed control at 200 ppm in data set [2] is not below 80%. For the same compound, the inhibition of growth at 20 ppm in data set [3] was not below 80%.

Take `FC(F)(F)c1nc(-c2ccc(Cn3cc(C4CCCC4)nn3)cc2)no1` [Compound 1.24, 3-[4-[(4-cyclopentyltriazol-1-yl)methyl]phenyl]-5-(trifluoromethyl)-1,2,4-oxadiazole]: the melting point was 117.9 to 118.8 °C and 117 to 119 °C. The pest or weed control at 200 ppm in the data set on Phakopsora pachyrhizi was not below 80%. Moreover, the pest or weed control at 200 ppm in data set [2] was not below 80%. Besides, in data set [3], the inhibition of growth at 20 ppm is not below 80%.

On to `C[Si](C)(C)c1cn(Cc2ccc(-c3noc(C(F)(F)F)n3)cc2)nn1` [Compound 1.25, trimethyl-[1-[[4-[5-(trifluoromethyl)-1,2,4-oxadiazol-3-yl]phenyl]methyl]triazol-4-yl]silane], for which the melting point lay in the range of 87.8 to 89.5 °C. The pest or weed control at 200 ppm in the data set with Phakopsora pachyrhizi was not below 80%. For the same compound, the pest or weed control at 200 ppm in data set [1] was not below 80%. Moreover, in data set [2], the pest or weed control at 200 ppm is not below 80%. For the same compound, the inhibition of growth at 20 ppm in data set [3] is not below 80%.

Regarding `CC(C)Cc1cn(Cc2ccc(-c3noc(C(F)(F)F)n3)cc2)nn1` [Compound 1.26, 3-[4-[(4-isobutyltriazol-1-yl)methyl]phenyl]-5-(trifluoromethyl)-1,2,4-oxadiazole], the melting point lay within 113.9 to 115.7 °C. Moreover, in the data set on Phakopsora pachyrhizi, the pest or weed control at 200 ppm was not below 80%. Further, in data set [1], the pest or weed control at 200 ppm is not below 80%. Also, the pest or weed control at 200 ppm in data set [2] was not below 80%. Further, in data set [3], the inhibition of growth at 20 ppm was not below 80%.

As to `CC(C)(C)c1cn(Cc2ccc(-c3noc(C(F)(F)F)n3)cc2)nn1` [Compound 1.27, 3-[4-[(4-tert-butyltriazol-1-yl)methyl]phenyl]-5-(trifluoromethyl)-1,2,4-oxadiazole], the melting point is 90.4 to 92.3 °C. In addition, in the data set on Phakopsora pachyrhizi, the pest or weed control at 200 ppm is not below 80%. Besides, the pest or weed control at 200 ppm in data set [1] was not below 80%. In addition, the pest or weed control at 200 ppm in data set [2] was not below 80%. The inhibition of growth at 20 ppm in data set [3] was not below 80%.

On to `FC(F)(F)c1nc(-c2ccc(Cn3cc(COc4ccccc4)nn3)cc2)no1` [Compound 1.28, 3-[4-[[4-(phenoxymethyl)triazol-1-yl]methyl]phenyl]-5-(trifluoromethyl)-1,2,4-oxadiazole], for which the melting point is 103.2 to 104.9 °C. For the same compound, the pest or weed control at 200 ppm in the data set with Phakopsora pachyrhizi was not below 80%. Besides, the pest or weed control at 200 ppm in data set [2] was not below 80%. For the same compound, the inhibition of growth at 20 ppm in data set [3] was not below 80%.

The compound `CC(C)(NC(=O)c1ccccc1)c1cn(Cc2ccc(-c3noc(C(F)(F)F)n3)cc2)nn1` [Compound 1.30, N-[1-methyl-1-[1-[[4-[5-(trifluoromethyl)-1,2,4-oxadiazol-3-yl]phenyl]methyl]triazol-4-yl]ethyl]benzamide] registered a melting point of 157.6 to 161.9 °C. In addition, the pest or weed control at 200 ppm with Phakopsora pachyrhizi is not below 80%. In data set [1], the pest or weed control at 200 ppm is not below 80%. For the same compound, the pest or weed control at 200 ppm in data set [2] is not below 80%. Besides, the inhibition of growth at 20 ppm in data set [3] was not below 80%.

Consider `FC(F)(F)c1nc(-c2ccc(Cn3ccnn3)cc2)no1` [Compound 1.32, 3-[4-(triazol-1-ylmethyl)phenyl]-5-(trifluoromethyl)-1,2,4-oxadiazole], for which the melting point fell in the range of 107.6 to 109.5 °C. Besides, the pest or weed control at 200 ppm with Phakopsora pachyrhizi was not below 80%. The pest or weed control at 200 ppm in data set [1] is not below 80%. Also, the pest or weed control at 200 ppm in data set [2] is not below 80%. Besides, in data set [3], the inhibition of growth at 20 ppm was not below 80%.

As for `FC(F)(F)c1nc(-c2ccc(Cn3nccn3)cc2)no1` [Compound 1.33, 3-[4-(triazol-2-ylmethyl)phenyl]-5-(trifluoromethyl)-1,2,4-oxadiazole], the melting point fell in the range of 105.4 to 107.9 °C. Moreover, in the data set with Phakopsora pachyrhizi, the pest or weed control at 200 ppm is not below 80%. The pest or weed control at 200 ppm in data set [1] is not below 80%. Also, the pest or weed control at 200 ppm in data set [2] is not below 80%. Moreover, the inhibition of growth at 20 ppm in data set [3] was not below 80%.

In turn, `FC(F)(F)c1nc(-c2ccc(Cn3nc4ccccc4n3)cc2)no1` [Compound 1.34, 3-[4-(benzotriazol-2-ylmethyl)phenyl]-5-(trifluoromethyl)-1,2,4-oxadiazole] gave a melting point of 112.4 to 116.6 °C. The pest or weed control at 200 ppm with Phakopsora pachyrhizi is not below 80%. Also, the pest or weed control at 200 ppm in data set [1] was not below 80%. Further, the pest or weed control at 200 ppm in data set [2] is not below 80%. Also, the inhibition of growth at 20 ppm in data set [3] was not below 80%.

In turn, `FC(F)(F)c1nc(-c2ccc(Cn3nnc4ccccc43)cc2)no1` [Compound 1.35, 3-[4-(benzotriazol-1-ylmethyl)phenyl]-5-(trifluoromethyl)-1,2,4-oxadiazole] displayed a melting point of 142.3 to 143.2 °C. Besides, the pest or weed control at 200 ppm in the data set on Phakopsora pachyrhizi was not below 80%. The pest or weed control at 200 ppm in data set [1] is not below 80%. In addition, in data set [2], the pest or weed control at 200 ppm is not below 80%. For the same compound, the inhibition of growth at 20 ppm in data set [3] is not below 80%.

Turning to `FC(F)(F)c1nc(-c2ccc(Cn3cncn3)c(Cl)c2)no1` [Compound 1.99, 3-[3-chloro-4-(1,2,4-triazol-1-ylmethyl)phenyl]-5-(trifluoromethyl)-1,2,4-oxadiazole], the melting point lay within 63 to 71 °C. Also, the pest or weed control at 200 ppm with Phakopsora pachyrhizi was not below 80%. In addition, the pest or weed control at 200 ppm in data set [1] is not below 80%. In addition, in data set [2], the pest or weed control at 200 ppm is not below 80%. Moreover, the inhibition of growth at 20 ppm in data set [3] was not below 80%.

In turn, `Fc1cc(-c2noc(C(F)(F)F)n2)ccc1Cn1cncn1` [Compound 1.101, 3-[3-fluoro-4-(1,2,4-triazol-1-ylmethyl)phenyl]-5-(trifluoromethyl)-1,2,4-oxadiazole] returned a melting point of 52 to 63 °C. Also, the pest or weed control at 200 ppm in the data set on Phakopsora pachyrhizi was not below 80%. Also, the pest or weed control at 200 ppm in data set [1] was not below 80%. In addition, the pest or weed control at 200 ppm in data set [2] was not below 80%. For the same compound, the inhibition of growth at 20 ppm in data set [3] is not below 80%.

Take `Cc1nn(Cc2ccc(-c3noc(C(F)(F)F)n3)cc2)c(C)c1C` [Compound 1.146, 5-(trifluoromethyl)-3-[4-[(3,4,5-trimethylpyrazol-1-yl)methyl]phenyl]-1,2,4-oxadiazole]: the melting point lay within 99.4 to 102 °C. For the same compound, in the data set with Phakopsora pachyrhizi, the pest or weed control at 200 ppm is not below 80%. In data set [1], the pest or weed control at 200 ppm was not below 80%. Also, the pest or weed control at 200 ppm in data set [2] is not below 80%. The inhibition of growth at 20 ppm in data set [3] was not below 80%.

Turning to `CCOC(=O)c1cn(Cc2ccc(-c3noc(C(F)(F)F)n3)cc2)nn1` [Compound 1.276, ethyl 1-[[4-[5-(trifluoromethyl)-1,2,4-oxadiazol-3-yl]phenyl]methyl]triazole-4-carboxylate], the melting point is 134 to 136 °C. Besides, in the data set on Phakopsora pachyrhizi, the pest or weed control at 200 ppm was not below 80%. Also, in data set [2], the pest or weed control at 200 ppm is not below 80%. In addition, the inhibition of growth at 20 ppm in data set [3] was not below 80%.

On to `CC(C)OC(=O)c1cn(Cc2ccc(-c3noc(C(F)(F)F)n3)cc2)nn1` [Compound 1.278, isopropyl 1-[[4-[5-(trifluoromethyl)-1,2,4-oxadiazol-3-yl]phenyl]methyl]triazole-4-carboxylate], for which the melting point fell in the range of 146 to 148 °C. In addition, the pest or weed control at 200 ppm in the data set on Phakopsora pachyrhizi was not below 80%. For the same compound, the pest or weed control at 200 ppm in data set [2] was not below 80%. In data set [3], the inhibition of growth at 20 ppm was not below 80%.

For the compound `CCON=Cc1cnn(Cc2ccc(-c3noc(C(F)(F)F)n3)cc2)c1` [Compound 1.286, N-ethoxy-1-[1-[[4-[5-(trifluoromethyl)-1,2,4-oxadiazol-3-yl]phenyl]methyl]pyrazol-4-yl]methanimine], the melting point fell in the range of 80 to 120 °C. Further, the pest or weed control at 200 ppm in the data set on Phakopsora pachyrhizi was not below 80%. Besides, the pest or weed control at 200 ppm in data set [2] is not below 80%. Moreover, in data set [3], the inhibition of growth at 20 ppm is not below 80%.

Regarding `CCOC(=O)c1cnn(CCc2ccc(-c3noc(C(F)(F)F)n3)cc2)c1` [Compound 1.310, ethyl 1-[2-[4-[5-(trifluoromethyl)-1,2,4-oxadiazol-3-yl]phenyl]ethyl]pyrazole-4-carboxylate], the melting point fell in the range of 108 to 110 °C. Moreover, the pest or weed control at 200 ppm with Phakopsora pachyrhizi was not below 80%. Also, in data set [2], the pest or weed control at 200 ppm was not below 80%.
